Assays:
Experiment in all cases: Kinase panel profiling
Format in all cases: biochemical
Conditions in all cases: 10 μM ATP
RAF1 = target: T1, RAF1 (Homo sapiens, UniProt P04049)
T1 construct: purchased Reaction Biology Corp
Protocol: (§1) Kinase panel profiling was conducted by Reaction Biology Corp. (San Diego, CA, USA). A single dose (1.0 μM) of 6r was tested against 371 recombinant human kinases in the presence of 10 μM ATP.

CDK6/cyclin D3 = target: T2, CDK6/cyclin D3 (Homo sapiens, UniProt Q00534)
T2 construct: purchased Reaction Biology Corp
Protocol: as §1

JAK3 = target: T3, JAK3 (Homo sapiens, UniProt P52333)
T3 construct: purchased Reaction Biology Corp
Protocol: as §1

SGK2 = target: T4, SGK2 (Homo sapiens, UniProt Q9HBY8)
T4 construct: purchased Reaction Biology Corp
Protocol: as §1

STK16 = target: T5, STK16 (Homo sapiens, UniProt O75716)
T5 construct: purchased Reaction Biology Corp
Protocol: as §1

LYN = target: T6, LYN (Homo sapiens, UniProt P07948)
T6 construct: purchased Reaction Biology Corp
Protocol: as §1

PIM3 = target: T7, PIM3 (Homo sapiens, UniProt Q86V86)
T7 construct: purchased Reaction Biology Corp
Protocol: as §1

MAST3 = target: T8, MAST3 (Homo sapiens, UniProt O60307)
T8 construct: purchased Reaction Biology Corp
Protocol: as §1

DDR1 = target: T9, DDR1 (Homo sapiens, UniProt Q08345)
T9 construct: purchased Reaction Biology Corp
Protocol: as §1

DMPK = target: T10, DMPK (Homo sapiens, UniProt Q09013)
T10 construct: purchased Reaction Biology Corp
Protocol: as §1

PLK2 = target: T11, PLK2 (Homo sapiens, UniProt Q9NYY3)
T11 construct: purchased Reaction Biology Corp
Protocol: as §1

RON/MST1R = target: T12, RON/MST1R (Homo sapiens, UniProt Q04912)
T12 construct: purchased Reaction Biology Corp
Protocol: as §1

STK38L/NDR2 = target: T13, STK38L/NDR2 (Homo sapiens, UniProt Q9Y2H1)
T13 construct: purchased Reaction Biology Corp
Protocol: as §1

AURORA B = target: T14, AURORA B (Homo sapiens, UniProt Q96GD4)
T14 construct: purchased Reaction Biology Corp
Protocol: as §1

STK22D/TSSK1 = target: T15, STK22D/TSSK1 (Homo sapiens, UniProt Q9BXA7)
T15 construct: purchased Reaction Biology Corp
Protocol: as §1

NIM1 = target: T16, NIM1 (Homo sapiens, UniProt Q8IY84)
T16 construct: purchased Reaction Biology Corp
Protocol: as §1

WEE1 = target: T17, WEE1 (Homo sapiens, UniProt P30291)
T17 construct: purchased Reaction Biology Corp
Protocol: as §1

CDK4/cyclin D1 = target: T18, CDK4/cyclin D1 (Homo sapiens, UniProt P11802)
T18 construct: purchased Reaction Biology Corp
Protocol: as §1

AKT2 = target: T19, AKT2 (Homo sapiens, UniProt P31751)
T19 construct: purchased Reaction Biology Corp
Protocol: as §1

PKCeta = target: T20, PKCeta (Homo sapiens, UniProt P24723)
T20 construct: purchased Reaction Biology Corp
Protocol: as §1

TNIK = target: T21, TNIK (Homo sapiens, UniProt Q9UKE5)
T21 construct: purchased Reaction Biology Corp
Protocol: as §1

MEKK6 = target: T22, MEKK6 (Homo sapiens, UniProt O95382)
T22 construct: purchased Reaction Biology Corp
Protocol: as §1

GCK/MAP4K2 = target: T23, GCK/MAP4K2 (Homo sapiens, UniProt Q12851)
T23 construct: purchased Reaction Biology Corp
Protocol: as §1

RET = target: T24, RET (Homo sapiens, UniProt P07949)
T24 construct: purchased Reaction Biology Corp
Protocol: as §1

LATS2 = target: T25, LATS2 (Homo sapiens, UniProt Q9NRM7)
T25 construct: purchased Reaction Biology Corp
Protocol: as §1

TTBK1 = target: T26, TTBK1 (Homo sapiens, UniProt Q5TCY1)
T26 construct: purchased Reaction Biology Corp
Protocol: as §1

MEK1 = target: T27, MEK1 (Homo sapiens, UniProt Q02750)
T27 construct: purchased Reaction Biology Corp
Protocol: as §1

IKKa/CHUK = target: T28, IKKa/CHUK (Homo sapiens, UniProt O15111)
T28 construct: purchased Reaction Biology Corp
Protocol: as §1

LIMK2 = target: T29, LIMK2 (Homo sapiens, UniProt P53671)
T29 construct: purchased Reaction Biology Corp
Protocol: as §1

CLK1 = target: T30, CLK1 (Homo sapiens, UniProt P49759)
T30 construct: purchased Reaction Biology Corp
Protocol: as §1

MARK1 = target: T31, MARK1 (Homo sapiens, UniProt Q9P0L2)
T31 construct: purchased Reaction Biology Corp
Protocol: as §1

SIK1 = target: T32, SIK1 (Homo sapiens, UniProt P57059)
T32 construct: purchased Reaction Biology Corp
Protocol: as §1

TAOK2/TAO1 = target: T33, TAOK2/TAO1 (Homo sapiens, UniProt Q9UL54)
T33 construct: purchased Reaction Biology Corp
Protocol: as §1

PKCb2 = target: T34, PKCb2 (Homo sapiens, UniProt P05771)
T34 construct: purchased Reaction Biology Corp
Protocol: as §1

CDK2/Cyclin A1 = target: T35, CDK2/Cyclin A1 (Homo sapiens, UniProt P24941)
T35 construct: purchased Reaction Biology Corp
Protocol: as §1

CDK2/cyclin E2 = target: T36, CDK2/cyclin E2 (Homo sapiens, UniProt P24941)
T36 construct: purchased Reaction Biology Corp
Protocol: as §1

PHKg2 = target: T37, PHKg2 (Homo sapiens, UniProt P15735)
T37 construct: purchased Reaction Biology Corp
Protocol: as §1

ULK1 = target: T38, ULK1 (Homo sapiens, UniProt O75385)
T38 construct: purchased Reaction Biology Corp
Protocol: as §1

ERK1 = target: T39, ERK1 (Homo sapiens, UniProt P27361)
T39 construct: purchased Reaction Biology Corp
Protocol: as §1

CLK4 = target: T40, CLK4 (Homo sapiens, UniProt Q9HAZ1)
T40 construct: purchased Reaction Biology Corp
Protocol: as §1

MNK2 = target: T41, MNK2 (Homo sapiens, UniProt Q9HBH9)
T41 construct: purchased Reaction Biology Corp
Protocol: as §1

PKCa = target: T42, PKCa (Homo sapiens, UniProt P17252)
T42 construct: purchased Reaction Biology Corp
Protocol: as §1

JNK1 = target: T43, JNK1 (Homo sapiens, UniProt P45983)
T43 construct: purchased Reaction Biology Corp
Protocol: as §1

T28 sequence (O15111 whole entry): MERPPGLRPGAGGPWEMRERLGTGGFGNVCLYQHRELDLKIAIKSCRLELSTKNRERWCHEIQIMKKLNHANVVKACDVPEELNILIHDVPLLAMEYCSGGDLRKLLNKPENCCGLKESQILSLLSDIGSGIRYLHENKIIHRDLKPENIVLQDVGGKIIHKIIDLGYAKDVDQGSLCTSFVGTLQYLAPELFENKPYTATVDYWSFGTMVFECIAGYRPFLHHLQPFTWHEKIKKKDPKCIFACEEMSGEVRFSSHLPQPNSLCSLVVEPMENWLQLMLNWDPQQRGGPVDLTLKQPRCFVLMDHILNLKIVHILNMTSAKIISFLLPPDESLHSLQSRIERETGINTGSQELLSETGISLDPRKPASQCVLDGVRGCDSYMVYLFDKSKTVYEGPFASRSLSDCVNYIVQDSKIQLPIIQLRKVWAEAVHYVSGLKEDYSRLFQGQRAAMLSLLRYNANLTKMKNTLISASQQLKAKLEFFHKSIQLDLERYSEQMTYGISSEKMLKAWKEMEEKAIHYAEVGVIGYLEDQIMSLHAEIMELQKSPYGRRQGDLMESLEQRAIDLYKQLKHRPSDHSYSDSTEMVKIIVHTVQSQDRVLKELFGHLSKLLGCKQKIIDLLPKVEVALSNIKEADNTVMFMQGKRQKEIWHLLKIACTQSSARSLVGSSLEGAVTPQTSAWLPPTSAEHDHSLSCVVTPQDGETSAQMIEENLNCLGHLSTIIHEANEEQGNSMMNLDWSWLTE
T32 sequence (P57059 whole entry): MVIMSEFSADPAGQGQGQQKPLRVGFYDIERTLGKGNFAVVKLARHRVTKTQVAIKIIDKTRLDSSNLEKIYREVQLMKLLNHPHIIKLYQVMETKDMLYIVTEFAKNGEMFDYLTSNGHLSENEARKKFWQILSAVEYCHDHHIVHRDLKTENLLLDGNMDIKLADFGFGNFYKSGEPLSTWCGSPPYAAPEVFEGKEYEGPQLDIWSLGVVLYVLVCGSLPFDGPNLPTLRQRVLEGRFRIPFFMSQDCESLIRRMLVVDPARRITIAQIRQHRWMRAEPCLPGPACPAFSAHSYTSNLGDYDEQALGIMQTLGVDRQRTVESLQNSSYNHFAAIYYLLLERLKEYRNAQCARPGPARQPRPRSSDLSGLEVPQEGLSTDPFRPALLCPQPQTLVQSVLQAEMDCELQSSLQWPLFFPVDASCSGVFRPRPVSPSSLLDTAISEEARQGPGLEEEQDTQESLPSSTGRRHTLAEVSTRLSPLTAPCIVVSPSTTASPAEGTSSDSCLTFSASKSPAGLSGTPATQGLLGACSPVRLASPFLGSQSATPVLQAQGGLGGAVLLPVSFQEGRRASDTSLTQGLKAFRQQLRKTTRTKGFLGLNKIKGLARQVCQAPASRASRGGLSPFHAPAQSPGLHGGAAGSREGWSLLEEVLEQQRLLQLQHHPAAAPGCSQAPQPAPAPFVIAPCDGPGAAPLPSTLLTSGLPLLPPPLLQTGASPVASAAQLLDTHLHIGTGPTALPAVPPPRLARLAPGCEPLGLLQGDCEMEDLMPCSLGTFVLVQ
T8 sequence (O60307 whole entry): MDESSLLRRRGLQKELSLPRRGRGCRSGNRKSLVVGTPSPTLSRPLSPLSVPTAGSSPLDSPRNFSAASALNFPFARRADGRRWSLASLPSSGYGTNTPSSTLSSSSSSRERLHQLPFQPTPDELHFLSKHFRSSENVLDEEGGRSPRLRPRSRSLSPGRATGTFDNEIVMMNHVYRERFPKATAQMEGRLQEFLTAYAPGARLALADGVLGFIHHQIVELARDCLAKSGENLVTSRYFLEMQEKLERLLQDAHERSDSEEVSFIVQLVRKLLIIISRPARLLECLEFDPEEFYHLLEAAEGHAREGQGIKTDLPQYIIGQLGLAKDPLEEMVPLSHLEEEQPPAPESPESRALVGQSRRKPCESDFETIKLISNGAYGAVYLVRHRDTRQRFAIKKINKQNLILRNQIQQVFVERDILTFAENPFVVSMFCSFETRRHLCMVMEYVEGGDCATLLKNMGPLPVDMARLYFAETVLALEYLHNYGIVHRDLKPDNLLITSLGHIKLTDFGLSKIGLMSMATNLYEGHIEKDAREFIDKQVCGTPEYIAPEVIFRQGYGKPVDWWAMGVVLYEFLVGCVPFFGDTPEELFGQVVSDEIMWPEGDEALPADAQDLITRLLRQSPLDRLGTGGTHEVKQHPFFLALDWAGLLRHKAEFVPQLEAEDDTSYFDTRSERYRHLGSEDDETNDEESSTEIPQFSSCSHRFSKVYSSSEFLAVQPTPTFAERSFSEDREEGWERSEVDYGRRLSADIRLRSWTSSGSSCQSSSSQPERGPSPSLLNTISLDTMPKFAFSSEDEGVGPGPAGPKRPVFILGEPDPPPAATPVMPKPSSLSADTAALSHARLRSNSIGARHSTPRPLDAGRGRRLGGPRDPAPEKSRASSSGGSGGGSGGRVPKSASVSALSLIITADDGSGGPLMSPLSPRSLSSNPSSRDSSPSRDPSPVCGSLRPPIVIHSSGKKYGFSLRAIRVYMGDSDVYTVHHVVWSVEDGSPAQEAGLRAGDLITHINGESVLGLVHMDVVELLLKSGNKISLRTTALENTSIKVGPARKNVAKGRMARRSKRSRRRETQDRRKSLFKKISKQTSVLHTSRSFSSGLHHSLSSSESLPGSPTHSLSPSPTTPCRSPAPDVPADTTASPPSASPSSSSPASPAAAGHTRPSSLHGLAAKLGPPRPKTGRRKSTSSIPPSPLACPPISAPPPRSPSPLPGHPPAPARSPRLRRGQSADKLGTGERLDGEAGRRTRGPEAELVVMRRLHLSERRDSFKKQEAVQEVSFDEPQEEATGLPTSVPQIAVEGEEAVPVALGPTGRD
T9 sequence (Q08345 19-913): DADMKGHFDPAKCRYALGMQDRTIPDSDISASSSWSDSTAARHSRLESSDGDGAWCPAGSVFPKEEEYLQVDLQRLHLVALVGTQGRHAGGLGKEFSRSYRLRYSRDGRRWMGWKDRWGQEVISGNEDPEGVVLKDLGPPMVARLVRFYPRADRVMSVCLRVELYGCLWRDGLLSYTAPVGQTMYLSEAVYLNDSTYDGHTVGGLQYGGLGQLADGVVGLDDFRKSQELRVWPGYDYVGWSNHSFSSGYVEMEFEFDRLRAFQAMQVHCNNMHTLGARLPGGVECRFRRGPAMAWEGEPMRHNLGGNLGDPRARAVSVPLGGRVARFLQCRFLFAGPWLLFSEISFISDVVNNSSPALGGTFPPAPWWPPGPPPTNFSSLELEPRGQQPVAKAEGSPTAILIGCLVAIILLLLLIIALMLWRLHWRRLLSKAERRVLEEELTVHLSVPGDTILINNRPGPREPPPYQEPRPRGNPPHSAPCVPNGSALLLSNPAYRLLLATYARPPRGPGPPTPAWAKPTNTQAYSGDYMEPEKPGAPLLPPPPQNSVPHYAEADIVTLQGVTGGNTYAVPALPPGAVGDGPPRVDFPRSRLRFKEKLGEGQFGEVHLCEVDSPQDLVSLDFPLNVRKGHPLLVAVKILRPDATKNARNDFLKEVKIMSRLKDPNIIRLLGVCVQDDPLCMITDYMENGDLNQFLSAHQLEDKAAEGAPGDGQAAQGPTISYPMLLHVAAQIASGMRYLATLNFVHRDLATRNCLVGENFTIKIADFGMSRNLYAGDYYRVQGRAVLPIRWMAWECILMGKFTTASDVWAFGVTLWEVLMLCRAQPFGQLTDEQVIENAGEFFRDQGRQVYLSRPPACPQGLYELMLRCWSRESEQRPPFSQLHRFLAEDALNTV
T19 sequence (P31751 whole entry): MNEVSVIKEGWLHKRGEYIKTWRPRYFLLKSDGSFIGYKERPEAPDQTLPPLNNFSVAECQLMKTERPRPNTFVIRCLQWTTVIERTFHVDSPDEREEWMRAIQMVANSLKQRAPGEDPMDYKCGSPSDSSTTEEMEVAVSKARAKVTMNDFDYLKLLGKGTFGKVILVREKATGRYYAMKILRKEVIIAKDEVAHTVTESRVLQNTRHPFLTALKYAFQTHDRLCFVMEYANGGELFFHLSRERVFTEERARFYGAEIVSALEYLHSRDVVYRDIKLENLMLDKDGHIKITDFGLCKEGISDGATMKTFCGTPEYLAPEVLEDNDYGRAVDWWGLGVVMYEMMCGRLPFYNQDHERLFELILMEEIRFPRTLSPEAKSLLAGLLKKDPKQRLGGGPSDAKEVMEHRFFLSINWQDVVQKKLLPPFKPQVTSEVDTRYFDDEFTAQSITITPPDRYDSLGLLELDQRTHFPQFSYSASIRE

## Cc1ccc(NC(=O)c2ccc(CN3CCN(C)CC3)c(C(F)(F)F)c2)cc1-c1cnc2sc(N)nc2c1 [6r]
RAF1
  inhibition at 1 µM: 99.9%
CDK6/cyclin D3
  inhibition at 1 µM: 4.2%
JAK3
  inhibition at 1 µM: 7.8%
SGK2
  inhibition at 1 µM: 3.8%
STK16
  inhibition at 1 µM: 3.6%
LYN
  inhibition at 1 µM: 97.5%
PIM3
  inhibition at 1 µM: 3.4%
MAST3
  inhibition at 1 µM: 0%
DDR1
  inhibition at 1 µM: 99.9%
DMPK
  inhibition at 1 µM: 0%
PLK2
  inhibition at 1 µM: 3.9%
RON/MST1R
  inhibition at 1 µM: 4.5%
STK38L/NDR2
  inhibition at 1 µM: 6.5%
AURORA B
  inhibition at 1 µM: 0%
STK22D/TSSK1
  inhibition at 1 µM: 14.9%
NIM1
  inhibition at 1 µM: 1.3%
WEE1
  inhibition at 1 µM: 0%
CDK4/cyclin D1
  inhibition at 1 µM: 4.7%
AKT2
  inhibition at 1 µM: 14%
PKCeta
  inhibition at 1 µM: 3.1%
TNIK
  inhibition at 1 µM: 22.4%
MEKK6
  inhibition at 1 µM: 8%
GCK/MAP4K2
  inhibition at 1 µM: 21.8%
RET
  inhibition at 1 µM: 99.4%
LATS2
  inhibition at 1 µM: 2.1%
TTBK1
  inhibition at 1 µM: 9.9%
MEK1
  inhibition at 1 µM: 14.4%
IKKa/CHUK
  inhibition at 1 µM: 4.8%
LIMK2
  inhibition at 1 µM: 39.9%
CLK1
  inhibition at 1 µM: 0%
MARK1
  inhibition at 1 µM: 0%
SIK1
  inhibition at 1 µM: 1.1%
TAOK2/TAO1
  inhibition at 1 µM: 61.9%
PKCb2
  inhibition at 1 µM: 12.7%
CDK2/Cyclin A1
  inhibition at 1 µM: 7.6%
CDK2/cyclin E2
  inhibition at 1 µM: 8.3%
PHKg2
  inhibition at 1 µM: 5%
ULK1
  inhibition at 1 µM: 3.7%
ERK1
  inhibition at 1 µM: 11.7%
CLK4
  inhibition at 1 µM: 7.7%
MNK2
  inhibition at 1 µM: 0%
PKCa
  inhibition at 1 µM: 4.2%
JNK1
  inhibition at 1 µM: 14%
